Tests used:
[1] = Salt screen: HT-XRPD after accelerated aging conditions; type: physicochemical; settings: solid form by HT-XRPD after 40° C., 75% RH for two days, code+number = crystalline salt polymorph, 0 = crystalline counter ion itself
Procedure: XRPD patterns were obtained using the Crystallics T2 high-throughput XRPD set-up. The plates were mounted on a Bruker General Area Detector Diffraction System (GADDS) equipped with a VÅNTEC-500 gas area detector corrected for intensity and geometric variations. The calibration of the measurement accuracy (peaks position) was performed using NIST SRM1976 standard (Corundum).
Data collection was carried out at room temperature using monochromatic CuKα radiation in the 2θ region between 1.5° and 41.5°, which is the most distinctive part of the XRPD pattern. The diffraction pattern of each well was collected in two 2θ ranges (1.5°≦2θ≦21.5° for the first frame, and 19.5°≦2θ≦41.5° for the second) with an exposure time of 90 s for each frame. No background subtraction or curve smoothing was applied to the XRPD patterns.
Approximately 175 mg of N^4-(cyclopropylmethyl)-6-[(3R)-3-(methylamino)pyrrolidin-1-yl]pyrimidine-2,4-diamine in 1-Butanol and Dichloromethane were combined with a slight molar excess of either solid or liquid counter ion. Samples were incubated at RT. After 5 days the solids were collected, dried under vacuum and analyzed by HT-XRPD (XRPD 1).
Subsequently, the solids were exposed to accelerated aging conditions (40° C., 75% RH) for two days and re-analyzed by HT-XRPD (XRPD 2). Crystalline salts (polymorphs) are indicated with the abbreviated counter ion code and a number (1, 2, etc.). The number zero (0) indicates the crystalline counter ion itself.

[2] = Dynamic vapor sorption (DVS) analysis; type: physicochemical; settings: 25° C.
Procedure: Moisture sorption isotherms were collected on a DVS-1 system from Surface Measurement Systems (London, UK). Typical sample size is between 5 and 10 mg of solid material. The relative humidity was cycled between 40% to 0% (desorption), up to 95% (sorption), back to 0% RH (desorption) and up to 95% RH (sorption) in steps of 10% at a constant temperature of 25° C. with an initial stabilizing step at 40% RH for 6 hours.
(FIG. 9) The relative humidity (RH) was cycled between 40% to 0% (desorption), up to 95% (sorption) in steps of 10%. During the desorption, the dehydration step occurs when the RH goes below 10% RH. Water uptake is observed in between 0-20% RH (1.9% mass uptake) and 20-30% (total mass uptake 6.9%).

[3] = Salt screen: HT-XRPD after accelerated aging conditions; type: physicochemical; settings: 14 counter ions tested; only hydrochloric acid gave such a salt
[4] = Phase 1 trials, single and multiple ascending doses; type: in vivo, human
Procedure: In phase 1 trials, 62 subjects were treated with ZPL-389.

mild asthmatics = settings: 36 mg in two single doses given 12 hours apart, oral; cited from earlier work
[5] = system: adult subjects with moderate to severe atopic dermatitis; assay: Phase 2a study in moderate to severe atopic dermatitis; type: in vivo, human
Procedure: Following the phase 1 trials, a phase 2a trial was conducted to evaluate the efficacy of 8 weeks of treatment with 30 mg ZPL-389 administered once daily in adult subject with moderate to severe atopic dermatitis. The study was also designed to assess the safety and tolerability of ZPL-389 in adult subjects with moderate to severe atopic dermatitis.
This study was a randomized, double blind, placebo controlled, parallel group study of subjects having a pruritus Numerical Rating Scale (NRS) of ≧5 (0-10 scale), an Investigator's Global Assessment (IGA) ≧3 (0-3 scale), and moderate-severe AD Eczema Area and Severity Index (EASI) ≧12 and ≦48 (0-72 scale). In addition, subjective patient reported outcome instruments include: Ziarco Itch Diary (Electronic) Pruritus; 5D Pruritus Scale; Dermatology Life Quality Index (DLQI); and Patient Global Impression of Change (PGIG).
Each subject (aged 18-65 years) had one or more screening visits to confirm suitability to enter the study. 98 subjects with moderate to severe atopic dermatitis were randomized 2:1 to receive orally either 30 mg ZPL-389 or placebo once daily for eight weeks (56 days).
Efficacy endpoints for the trial include the following: • change from baseline in NRS for pruritus (worst itch) over 24 hours; • change from baseline in daytime NRS for pruritus (worst itch); • change from baseline in night time NRS for pruritus (worst itch); • change from baseline in NRS for sleep disturbance; • change from baseline in duration of itching; • change from baseline in verbal rating score for pruritus; • change from baseline in EASI score; • change from baseline in SCORAD score; • IGA score; • amount of rescue medication use; and/or • PGIC.

[6] = 30 mg orally once daily vs placebo
[7] = 30 mg orally once daily, 8 weeks

Row | Compound | XRPD 2 ([1]; 1-Butanol) | XRPD 2 ([1]; Dichloromethane) | also measured
1 | O=C(O)C(O)c1ccccc1 (racemic) [DL-Mandelic acid] | Amorphous | Amorphous | –
2 | CC(=O)Nc1ccc(C(=O)O)cc1 [4-acetamido-Benzoic acid] | ABen1 + ABen0 | ABen1 + ABen0 | –
3 | O=C(O)[C@H](O)[C@@H](O)C(=O)O [(+)-L-Tartaric acid] | Amorphous | Amorphous | –
4 | CC(=O)O [Acetic acid] | Amorphous | Amorphous | –
5 | O=S(=O)(O)c1ccccc1 [Benzenesulfonic acid] | Amorphous | Amorphous | –
6 | O=C(O)c1ccccc1 [Benzoic acid] | Ben1 + Ben2 plus | Ben1 + Ben2 plus | –
7 | O=C(O)CC(O)(CC(=O)O)C(=O)O [Citric acid] | Amorphous | Amorphous | –
8 | O=C[C@H](O)[C@@H](O)[C@H](O)[C@H](O)C(=O)O [D-Glucuronic acid] | Amorphous | Amorphous | –
9 | O=S(=O)(O)CCS(=O)(=O)O [Ethane-1,2-disulfonic acid] | Eds1 + Eds2 | Eds1 | –
10 | CCS(=O)(=O)O [Ethanesulfonic acid] | Amorphous | Amorphous | –
11 | CN[C@@H]1CCN(c2cc(NCC3CC3)nc(N)n2)C1.O.O.O=C(O)C(O)C(O)C(=O)O [Example 4, N^4-(cyclopropylmethyl)-6-[(3R)-3-(methylamino)pyrrolidin-1-yl]pyrimidine-2,4-diamine tartrate dihydrate] | – | – | RH at which the dehydration step occurs during desorption ([2]; DVS desorption): below 10 % RH; Water uptake (mass uptake) between 0-20% RH ([2]; DVS sorption): 1.9%; total mass uptake at 20-30% RH ([2]; DVS sorption): 6.9%; weight between 30-90% RH ([2]; DVS): remains stable
12 | CN[C@@H]1CCN(c2cc(NCC3CC3)nc(N)n2)C1.Cl.Cl.O [Example 8, N^4-(cyclopropylmethyl)-6-[(3R)-3-(methylamino)pyrrolidin-1-yl]pyrimidine-2,4-diamine di-hydrochloride hydrate] | – | – | stability of two to one stoichiometric salt [3]: stable
13 | O=C(O)/C=C/C(=O)O [Fumaric acid] | Amorphous | Fum0 + Fum3 | –
14 | O=C(O)c1cc(O)ccc1O [Gentisic acid] | Gen2 | Gen2 | –
15 | O=C(O)[C@H](O)[C@@H](O)[C@H](O)[C@H](O)CO [Gluconic acid] | Amorphous | Amorphous | –
16 | N[C@@H](CCC(=O)O)C(=O)O [Glutamic acid] | Gltm0 | Amorphous | –
17 | O=C(O)CCCC(=O)O [Glutaric acid] | Glut1 | Glut1 | –

Row | Compound | XRPD 2 ([1]; 1-Butanol) | XRPD 2 ([1]; Dichloromethane) | also measured
18 | O=C(O)CNC(=O)c1ccccc1 [Hippuric acid] | Amorphous | Amorphous | –
19 | Br [Hydrobromic acid] | Amorphous | Amorphous | –
20 | Cl [Hydrochloric acid] | Amorphous | Amorphous | –
21 | O=C1O[C@H]([C@@H](O)CO)C(O)=C1O [L-Ascorbic acid] | Amorphous | Amorphous | –
22 | N[C@@H](CC(=O)O)C(=O)O [L-Aspartic acid] | Asp0 | Amorphous | –
23 | CC(O)C(=O)O (stereo not drawn) [Lactic acid] | Amorphous | Amorphous | –
24 | O=C(O)/C=C\C(=O)O [Maleic acid] | Amorphous | Amorphous | –
25 | CS(=O)(=O)O [Methanesulfonic acid] | Amorphous | Amorphous | –
26 | O=S(=O)(O)c1ccc2ccccc2c1 [Naphtalene-2-sulfonic acid] | Nap1 + Nap0 | Amorphous | –
27 | O=C(O)C(=O)O [Oxalic acid] | Oxa3 | Oxa3 | –
28 | O=P(O)(O)O [Phosphoric acid] | Pho2 plus | Pho3 | –
29 | O=C(O)c1ccccc1O [Salicylic acid] | Sal1 plus | Amorphous | –
30 | CCCCCCCCCCCCCCCCCC(=O)O [Stearic acid] | Ste0 + Ste1 | Ste0 + Ste1 | –
31 | O=S(=O)(O)O [Sulfuric acid] | Amorphous | Amorphous | –
32 | CN[C@@H]1CCN(c2cc(NCC3CC3)nc(N)n2)C1 [ZPL-389, N^4-(cyclopropylmethyl)-6-[(3R)-3-(methylamino)pyrrolidin-1-yl]pyrimidine-2,4-diamine] | – | – | absorption ([4]; phase 1 trials): rapidly absorbed; pharmacokinetics (dose proportionality) ([4]; phase 1 trials): dose-proportional; majority of observed adverse events ([4]; single ascending doses 0.01-48 mg, multiple ascending doses 5, 15, 50 mg once daily for 14 days): mild, transient, and non-dose related; tolerability ([4]; single ascending doses 0.01-48 mg, multiple ascending doses 5, 15, 50 mg once daily for 14 days, 62 subjects): safely tolerated; efficacy in mild asthma (mild asthmatics): no efficacy was observed; IGA remission odds ratio [5, 6]: 2.71; IGA response odds ratio [5, 6]: 2.51; Treatment Emergent Adverse Events (TEAE) between ZPL-389 and placebo [5, 7]: no differences; inflammation compared to placebo (EASI, SCORAD, BSA) [5, 7]: clinically and statistically significant decrease; subjects with clear or almost clear skin [5, 7]: 19%; tolerability / safety profile ([5]; 30 mg orally once daily, 8 weeks, comparable to placebo): well tolerated; rescue medication use ([5]; 30 mg orally once daily, 8 weeks, vs placebo): lower; IGA reduced by ([5]; 30 mg orally once daily, week 8, placebo 25%): 36%; SCORAD reduced by ([5]; 30 mg orally once daily, week 8, placebo 26%, p=0.004): 41%; EASI reduced by ([5]; 30 mg orally once daily, week 8, placebo 27%, p=0.01): 50%; BSA (Body Surface Area) affected by inflammation change from baseline ([5]; 30 mg orally once daily, week 8, placebo −12%, p=0.044): −18%; pruritus ([5]; 30 mg orally once daily, statistically significant compared to baseline): markedly reduced
33 | Cc1ccc(S(=O)(=O)O)cc1 [p-Toluenesulfonic acid] | Amorphous | Amorphous | –
34 | (−)-L-Malic acid | Amorphous | Amorphous | –
